Assay results reported in article doi:10.1101/2022.03.28.485913v1, “A unified in vitro to in vivo fluorescence lifetime screening platform yields amyloid β aggregation inhibitors” (biorxiv, 2022).

Legend:
amyloid β (1-42) (Aβ42) [1] = target: T1, amyloid β (1-42) (Aβ42) (Homo sapiens, UniProt P05067); assay: nanoFLIM aggregation kinetics, fluorescence lifetime in microfluidic droplets, initial rates; type: biochemical
T1 construct: gene APP; Amyloid-beta 1-42 peptide cut from APP, 42 residues; synthetic, unlabelled or partly mixed with N-terminally HiLyte Fluor 488 labelled peptide; recombinant 15N peptide (AlexoTech) for NMR; aggregating, starting from monomer

amyloid β (1-42) (Aβ42) [2] = target: T1, amyloid β (1-42) (Aβ42); assay: nanoFLIM aggregation assay, TEM; type: biochemical; conditions: 10 μM Aβ42-488, 50% labelled, 10 or 50 μM compound; ThT assay masked by compound fluorescence

T1 sequence (P05067 672-713): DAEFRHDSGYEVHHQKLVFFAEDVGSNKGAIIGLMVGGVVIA

| SMILES | IC50 (amyloid β (1-42) (Aβ42) [1]) | nanoFLIM aggregation assay, TEM (amyloid β (1-42) (Aβ42) [2]) |
| --- | --- | --- |
| O=C(O)c1cc(-c2cccc(Br)c2)nc2ccc([N+](=O)[O-])cc12 [MJ040] | 4.3 ± 1.3 µM |  |
| COC(=O)c1ccccc1NC(=O)c1cc(-c2ccccc2)nc2ccccc12 [MJ001] |  | MJ001 and MJ042 (Fig. 2a,b), showed weaker, yet significant inhibitory activity |
| O=C(O)c1cc(-c2cc(F)cc(Cl)c2)nc2ccccc12 [MJ042] |  | MJ001 and MJ042 (Fig. 2a,b), showed weaker, yet significant inhibitory activity |
